In ChEMBL document CHEMBL1201862, “PubChem BioAssay data set” (2004):
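Assay format: 96-well plates, 48-hour exposure. The concentration for 50% growth inhibition is given as GI50.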 Active and inactive are the calls of the source. Cut-off read from the data, not from the text of the source: active = GI50 up to about 1.1 µM and inactive = higher.

How the values were obtained:
Experiment in all cases: growth of human tumour cells (NCI), 48 h
LOX IMVI = tested on: LOX IMVI
SNB-19 = tested on: SNB-19
NCI-H226 = tested on: NCI-H226
OVCAR-5 = tested on: OVCAR-5
MOLT-4 = tested on: MOLT-4
UACC-257 = tested on: UACC-257
NCI-H460 = tested on: NCI-H460
A498 = tested on: A498
KM12 = tested on: KM12
A549 = tested on: A549
SK-MEL-2 = tested on: SK-MEL-2
HCT-116 = tested on: HCT-116
SN12C = tested on: SN12C
CAKI-1 = tested on: CAKI-1
HCC 2998 = tested on: HCC 2998
SW-620 = tested on: SW-620

Measured: GI50

O=C(CC(=O)c1ccccc1)C(=O)NC12CC3CC(CC(C3)C1)C2
inactive: LOX IMVI > 34.6 µM | SNB-19 > 100 µM | NCI-H226 > 100 µM | OVCAR-5 > 100 µM | MOLT-4 > 100 µM | UACC-257 > 100 µM | NCI-H460 > 40.7 µM | A498 > 100 µM | KM12 > 100 µM | A549 > 54.1 µM | SK-MEL-2 > 100 µM | HCT-116 > 64.1 µM | SN12C > 100 µM | CAKI-1 > 100 µM | HCC 2998 > 100 µM | SW-620 > 41.6 µM

CS(=O)(=O)NNS(=O)(=O)c1ccc(F)cc1
inactive: LOX IMVI > 100 µM | SNB-19 > 100 µM | NCI-H226 > 100 µM | MOLT-4 > 100 µM | UACC-257 > 100 µM | NCI-H460 > 100 µM | A498 > 100 µM | KM12 > 100 µM | A549 > 100 µM | SK-MEL-2 > 100 µM | HCT-116 > 100 µM | SN12C > 100 µM | CAKI-1 > 100 µM | HCC 2998 > 100 µM | SW-620 > 100 µM

Cc1cccc(N2C(=O)C(Cl)=C(Cl)C2=O)c1
inactive: LOX IMVI > 100 µM | SNB-19 > 100 µM | NCI-H226 > 100 µM | OVCAR-5 > 100 µM | MOLT-4 33.9 µM | UACC-257 > 100 µM | NCI-H460 > 100 µM | A498 > 100 µM | KM12 > 100 µM | A549 > 100 µM | SK-MEL-2 > 100 µM | HCT-116 38.6 µM | SN12C > 80.5 µM | CAKI-1 > 42.3 µM | HCC 2998 > 100 µM | SW-620 > 44 µM

CCN(CC)CCC1(C2CCCCC2)CCC(=O)NC1=O (stereo not drawn)
inactive: LOX IMVI > 100 µM | SNB-19 > 100 µM | NCI-H226 > 100 µM | OVCAR-5 > 100 µM | MOLT-4 > 100 µM | UACC-257 > 100 µM | NCI-H460 > 100 µM | A498 > 100 µM | KM12 > 100 µM | A549 > 100 µM | SK-MEL-2 > 100 µM | HCT-116 > 100 µM | SN12C > 100 µM | CAKI-1 > 100 µM | HCC 2998 > 100 µM | SW-620 > 100 µM

N=C(N)NS(=O)(=O)c1ccc(NC(=O)c2cccc3c(N)c4ccccc4nc23)cc1
inactive: LOX IMVI > 100 µM | SNB-19 26.7 µM | NCI-H226 > 100 µM | OVCAR-5 > 100 µM | MOLT-4 42 µM | UACC-257 > 100 µM | NCI-H460 > 100 µM | A498 > 100 µM | KM12 8.57 µM | A549 > 100 µM | SK-MEL-2 > 100 µM | HCT-116 > 100 µM | SN12C > 100 µM | CAKI-1 > 100 µM | HCC 2998 > 100 µM | SW-620 > 100 µM

CCCCCCCCCCCCCS(=O)(=O)NCC(N)=O
inactive: LOX IMVI > 100 µM | SNB-19 > 100 µM | NCI-H226 > 100 µM | OVCAR-5 > 100 µM | UACC-257 > 100 µM | NCI-H460 > 100 µM | A498 > 100 µM | KM12 > 100 µM | A549 > 100 µM | SK-MEL-2 > 100 µM | HCT-116 > 100 µM | SN12C > 100 µM | HCC 2998 > 100 µM | SW-620 > 100 µM

COc1ccccc1N1C(=O)C2c3[nH]c4ccccc4c3C3CCC(C(C)(C)C)CC3C2C1=O (stereo not drawn)
inactive: SNB-19 > 100 µM | NCI-H226 > 100 µM | MOLT-4 > 100 µM | UACC-257 > 100 µM | A498 > 100 µM | A549 > 100 µM | HCT-116 > 100 µM | SN12C > 100 µM | HCC 2998 > 100 µM | SW-620 > 100 µM

CCCCC1(OC(=O)CCC(=O)O)CCC2(CCC(C)C(C/C=C(C)/C=C/C(O)C(C)/C=C/C(=O)O)O2)OC1CC/C(C)=C/C(=O)O (stereo not drawn)
inactive: LOX IMVI 1.66 µM | SNB-19 3.11 µM | NCI-H226 2.14 µM | OVCAR-5 3.94 µM | MOLT-4 5.02 µM | UACC-257 1.55 µM | NCI-H460 6.18 µM | A498 3.26 µM | KM12 3.1 µM | A549 12.2 µM | SK-MEL-2 1.71 µM | HCT-116 6.19 µM | SN12C 2.77 µM | CAKI-1 4.14 µM | HCC 2998 3.33 µM | SW-620 8.3 µM

O=C1NC(=O)/C(=N\c2cccc3c(=O)[nH][nH]c(=O)c23)C(c2nc3ccccc3s2)C1=O (stereo not drawn)
inactive: SNB-19 > 100 µM | NCI-H226 > 100 µM | MOLT-4 71.1 µM | UACC-257 > 100 µM | NCI-H460 > 100 µM | A498 > 100 µM | KM12 > 100 µM | A549 > 100 µM | SK-MEL-2 > 100 µM | HCT-116 > 100 µM | SN12C > 100 µM | CAKI-1 > 100 µM | HCC 2998 89.7 µM | SW-620 > 100 µM
